{"source": "paper PMC12348863", "about": "(Molecules, 2025)", "key": {"[1]": {"conditions": "unformulated CBD; cited from earlier work"}, "[2]": {"test": "Water solubility analysis (dissolved CBD in deionised water, HPLC)", "format": "physicochemical", "procedure": "The prepared CBD-GA complexes, in various molar ratios, were tested for water solubility. In a typical experiment, between 1.0 and 1.5 mg of the complex was accurately weighed and dissolved in 1 mL of deionised water (Merck Millipore, Burlington, MA, USA) under vigorous mixing. If necessary, an ultrasonic bath was employed to aid dissolution.\nFollowing mixing, the solution was centrifuged for 3 min at 3000× g. The resulting supernatant was transferred to vials for HPLC analysis. The concentration of dissolved CBD was quantified using a chromatographic method with an Agilent 1260 Infinity HPLC system (Waldbronn, Germany). Further details are provided in Appendix A.4.\nThe concentration of CBD in dissolution and permeation test samples was assayed using an Agilent 1260 Infinity system with UV detection. The column in use was Luna C18(2) (Phenomenex, Torrance, CA, USA), with dimensions 150 mm × 3 mm, 3 µm particle size. The column flow rate was 0.8 mL/min at 37 °C. The elution was isocratic, with the mobile phase consisting of acetonitrile–water at a ratio of 31:9 (v/v), with 10 mM ammonium formate and 0.1% (v/v) formic acid added (without pH adjustment). The injection volume was 5 µL, and the run time was 5 min. The UV detector wavelength was set at 275 nm."}, "[3]": {"test": "In vitro permeation (PAMPA) test", "format": "in vitro ADME", "conditions": "159 µM CBD", "quoted_text": "In vitro permeation (PAMPA) tests were performed to evaluate differences in permeation parameters between regular (lipophilic) CBD and the water-soluble CBD complex. Atenolol and metoprolol were included as control substances. The initial concentration of CBD in the donor medium was 159 µM, while the concentrations of atenolol and metoprolol were 500 µM each. The experiments were conducted using a 96-well PAMPA plate with PVDF filter membranes (Sigma-Aldrich). The donor medium consisted of 50 mM phosphate buffer (pH 6.5, Sigma-Aldrich) containing 5% (v/v) DMSO, with a volume of 300 µL per well. The acceptor medium used was Pion’s “acceptor sink buffer” (Billerica, MA, USA), added in a volume of 200 µL per well. The artificial membrane solution consisted of 1% (w/v) cholesterol (Merck, Darmstadt, Germany) dissolved in a 3:1 (v/v) mixture of dodecane and n-hexane. Prior to the experiment, 4 µL of this membrane solution was applied to each filter membrane. Each test compound was assessed in 12 replicates. The total duration of the experiment was 260 min. […] At the end of this experiment, both donor and acceptor solutions were analysed by HPLC. CBD concentrations were determined using HPLC with UV detection, according to the method described by Križman [39] […] Atenolol and metoprolol concentrations were analysed by HPLC with FL detection, following the protocol of Yilmaz et al. [40] […]"}}}
{"smiles": "C=C(C)[C@@H]1CCC(C)=C[C@H]1c1c(O)cc(CCCCC)cc1O", "note": "[pure CBD, Cannabidiol]", "values": [{"measurement": "aqueous solubility", "setting": "[1]", "value": "less than 60 ng/mL"}, {"measurement": "solubility", "setting": "[2]; deionised water, supernatant after centrifugation, HPLC, read-out: CBD Concentration (water solubility)", "value": "< 0.06", "unit": "µg/mL"}, {"measurement": "aqueous solubility, times lower than that of the water-soluble CBD complex", "setting": "[2]; unformulated CBD versus water-soluble CBD complex", "value": "more than 400 times"}, {"measurement": "Papp at 260 min, 159 µM", "setting": "[3]; donor 50 mM phosphate buffer pH 6.5 with 5% DMSO, 12 replicates, read-out: average permeability", "value": 1.98, "unit": "×10⁻⁶ cm/s"}, {"measurement": "mass retention in the lipophilic membrane", "setting": "[3]; donor pH 6.5 with 5% DMSO, 260 min, average", "value": 84, "unit": "%"}]}
